Converted amounts (≈) assume the structure as drawn. “And” between values parts separate entries of the source, which are not always exact repeats. Equal entries are not always repeated.
Legend:
AcpS^N82/81A = target: T1, AcpS^N82/81A (Escherichia coli, UniProt P24224, N81A); assay: Inhibition of purified AcpS site-directed mutant by DNM0547; assay type: biochemical, E. coli; settings: for AcpS rate nM/min, Mean / AcpS rate: Suppl Fig 3, [AcpS_N81A] 5nM; for AcpS rate: replicates
T1 construct: 6x-His (C); made in house
T1 sequence (P24224 whole entry N81A): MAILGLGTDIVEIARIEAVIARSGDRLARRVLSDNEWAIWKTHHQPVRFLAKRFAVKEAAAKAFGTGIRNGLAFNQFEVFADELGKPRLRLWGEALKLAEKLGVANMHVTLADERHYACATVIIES

[1] = test system: E. coli D22 over-expressing AcpS; assay: MIC upon IPTG-induced over-expression of MBP-AcpS (MBP only as control); assay type: cell-based
Excerpt: Over-expression of AcpS was confirmed by western blot (Supplementary Fig. 6b). This is consistent with inhibition of AcpS being the major mechanism of action for the antimicrobial activity of DNM0547.
Supplementary Figure 6. Increased expression of AcpS increases the MIC of DNM0547. a , the minimum inhibitory concentration (MIC; µg/ml) of the D22 strain of E. coli upon expression of plasmid borne maltose binding protein (MBP) AcpS from an IPTG inducible promoter versus just over-expression of MBP only. The D22 strain of E. coli has a porous outer membrane due to a point mutation in the lpxC gene enabling some compounds to enter the cell that can not permeate wild type E. coli. AcpS is expressed as a fusion with MBP. MICs were determined upon IPTG induction of MBP-AcpS with expression of just MBP used as control. b, western blot against MBP (New England Biolabs E8032S, 1:1000 dilution) to assess expression; IPTG induced expression of MBP and MBP-AcpS at the expected M Wts. c, equal protein was added from each E. coli protein extract used for the western blot. Ponceau stain of the membrane to assess protein loading and transfer.
(also on this page, place not known: DH5a BL 21 D 22 pMAL pMAL pAcpS pAcpS pMAL pMAL pAcpS pAcpS pMAL + pMAL pAcpS + pAcpS - - + - + - + - + - a, AcpS MBP M Compound MBP MBP-AcpS DNM0547 32 256) […]

AcpS = AcpS (Escherichia coli, UniProt P24224); assay: AcpS activity against increasing concentration of CoA with and without DNM0547 (mode of inhibition); assay type: biochemical; settings: Suppl Fig 2, [AcpS] 5 nM; for V(+Inhibitor): replicates
Chain of AcpS (P24224 2-126): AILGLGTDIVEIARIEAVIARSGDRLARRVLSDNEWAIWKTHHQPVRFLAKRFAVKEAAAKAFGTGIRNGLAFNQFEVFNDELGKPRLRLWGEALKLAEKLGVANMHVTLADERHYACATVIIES
Excerpt: AcpS was chosen as a potential new antibiotic target for several important reasons beyond its high level of conservation across bacterial species. […] We undertook a more in-depth characterization of AcpS inhibition using DNM0547 as the test compound for this antibiotic family. The computer-aided drug design strategy used positions DNM compounds in the active site of AcpS. If DNM0547 is binding to the active site of AcpS competitive inhibition against an AcpS substrate would be predicted.
The acpS gene was amplified from S. aureus and E. coli genomic DNA and inserted into a pET23b vector using standard recombinant DNA methodology such that the protein product would result in addition of a C-terminal 6x-His tag in frame with the AcpS open reading frames. The DNA sequences inserted in the vector were sequenced and found to be identical to the known E. coli and S. aureus acpS open reading frames. Recombinant His-Tagged AcpS expression was induced by IPTG addition and overnight culture. Cell lysate was obtained by sequential aspiration through 16, 18 and 21 G needles in a buffer of 50 mM Tris-HCl (pH 8.5), 10 mM MgCl2, 2 mM DTT, 5% glycerol, and further adjusted to pH 8.1 with MES. […] In a typical AcpS enzyme activity assay, 57 µM [^3H]acetyl-CoA, 2 µg apo-ACP, 10 mM MgCl2, 5 mM DTT, 50 mM Na phosphate (pH 7.0), and AcpS in a final volume of 10 µL were incubated at room temperature in a 1.5 mL microcentrifuge tube. At 5, 10, 15, and 20 min 2 µL of reaction were added to 750 µl 10% TCA on ice. Bovine serum albumin (BSA; 20 µl of a 25 mg/mL solution) was then added to facilitate precipitation of radiolabeled protein. The samples were centrifuged at 12,000 × g for 5 min. Supernatants were removed, and the pellets were rinsed twice with 750 µl of 10% trichloroacetic acid. Pellets were resuspended in 50 µl of formic acid and transferred to scintillation vials. 2 mL of scintillation fluid was added, and the amount of [^3H]-labeled holo-ACP formed was quantified by liquid scintillation counting. The enzymatic reaction proceeded in a linear manner depending on time (10–40 min) and enzyme concentration (1–5 nM). Routinely, each data point was determined at least by triplicate.
Supplementary Figure 2. […] AcpS enzyme activity was […]
determined versus using purified AcpS and increasing concentrations of CoA in the presence and absence of 8 µM DNM0547. Data are the mean values +/ - SD of three separate experiments performed in triplicate from three separate enzyme preparation. GraphPad Prism was used to determine V max and Km values.

CC(C)c1cc(Cl)ccc1-c1cc(-c2nnn[nH]2)c(-c2ccc(Cl)cc2C(C)C)s1 [DNM0547]
IC50 (AcpS^N82/81A): 5 µM
AcpS rate nM/min, Mean (AcpS^N82/81A; Drug Conc 1 uM): 7.81 nM/min
AcpS rate (AcpS^N82/81A; Drug Conc 1 uM): 7.96 nM/min and 7.81 nM/min and 7.64 nM/min
AcpS rate nM/min, Mean (AcpS^N82/81A; Drug Conc 2 uM): 6.86 nM/min
AcpS rate (AcpS^N82/81A; Drug Conc 2 uM): 6.91 nM/min and 7.01 nM/min and 6.66 nM/min
AcpS rate nM/min, Mean (AcpS^N82/81A; Drug Conc 4 uM): 4.72 nM/min
AcpS rate (AcpS^N82/81A; Drug Conc 4 uM): 4.74 nM/min and 4.76 nM/min and 4.66 nM/min
AcpS rate nM/min, Mean (AcpS^N82/81A; Drug Conc 8 uM): 3.23 nM/min
AcpS rate (AcpS^N82/81A; Drug Conc 8 uM): 2.93 nM/min and 3.30 nM/min and 3.44 nM/min
AcpS rate nM/min, Mean (AcpS^N82/81A; Drug Conc 16 uM): 2.83 nM/min
AcpS rate (AcpS^N82/81A; Drug Conc 16 uM): 3.20 nM/min and 2.39 nM/min and 2.90 nM/min
AcpS rate nM/min, Mean (AcpS^N82/81A; Drug Conc 32 uM): 1.69 nM/min
AcpS rate (AcpS^N82/81A; Drug Conc 32 uM): 1.65 nM/min and 1.74 nM/min and 1.68 nM/min
AcpS rate nM/min, Mean (AcpS^N82/81A; Drug Conc 64 uM): 1.60 nM/min
AcpS rate (AcpS^N82/81A; Drug Conc 64 uM): 1.52 nM/min and 1.63 nM/min and 1.65 nM/min
AcpS rate nM/min, Mean (AcpS^N82/81A; Drug Conc 128 uM): 1.34 nM/min
AcpS rate (AcpS^N82/81A; Drug Conc 128 uM): 1.38 nM/min and 1.44 nM/min and 1.20 nM/min
remaining activity at 1 µM (AcpS^N82/81A; read-out: % of untreated, Suppl Fig 3, [AcpS_N81A] 5nM, Drug Conc 1 uM, replicates): 105%
remaining activity at 2 µM (AcpS^N82/81A; read-out: % of untreated, Suppl Fig 3, [AcpS_N81A] 5nM, Drug Conc 2 uM, replicates): 90.9%
remaining activity at 4 µM (AcpS^N82/81A; read-out: % of untreated, Suppl Fig 3, [AcpS_N81A] 5nM, Drug Conc 4 uM, replicates): 62.4%
remaining activity at 8 µM (AcpS^N82/81A; read-out: % of untreated, Suppl Fig 3, [AcpS_N81A] 5nM, Drug Conc 8 uM, replicates): 38.5%
remaining activity at 16 µM (AcpS^N82/81A; read-out: % of untreated, Suppl Fig 3, [AcpS_N81A] 5nM, Drug Conc 16 uM, replicates): 42.1%
remaining activity at 32 µM (AcpS^N82/81A; read-out: % of untreated, Suppl Fig 3, [AcpS_N81A] 5nM, Drug Conc 32 uM, replicates): 21.7%
remaining activity at 64 µM (AcpS^N82/81A; read-out: % of untreated, Suppl Fig 3, [AcpS_N81A] 5nM, Drug Conc 64 uM, replicates): 20%
remaining activity at 128 µM (AcpS^N82/81A; read-out: % of untreated, Suppl Fig 3, [AcpS_N81A] 5nM, Drug Conc 128 uM, replicates): 18.1%
MIC ([1]; E. coli D22, IPTG-induced MBP only (control)): 32 mg/L (≈ 70 µM)
MIC ([1]; E. coli D22, IPTG-induced MBP-AcpS): 256 mg/L (≈ 560 µM)
MIC ([1]; Escherichia coli, E. coli D22 with over-expression of AcpS): 256 mg/L (≈ 560 µM)
MIC ([1]; Escherichia coli, Suppl Fig 6a, MBP (control), replicates): 32 mg/L (≈ 70 µM)
MIC ([1]; Escherichia coli, Suppl Fig 6a, MBP-AcpS, replicates): 256 mg/L (≈ 560 µM)
MIC ([1]; Suppl Fig 6a, MBP (control), replicates): 32 mg/L (≈ 70 µM)
MIC ([1]; Suppl Fig 6a, MBP-AcpS, replicates): 256 mg/L and >256 mg/L
V(+Inhibitor) Mean (AcpS; Acetyl CoA 0.06 mM): 20.55 nM/min
V(+Inhibitor) (AcpS; Acetyl CoA 0.06 mM): 19.96 nM/min and 23.46 nM/min and 18.23 nM/min
V(+Inhibitor) Mean (AcpS; Acetyl CoA 0.24 mM): 101.48 nM/min
V(+Inhibitor) (AcpS; Acetyl CoA 0.24 mM): 97.72 nM/min and 105.12 nM/min and 101.61 nM/min
V(+Inhibitor) Mean (AcpS; Acetyl CoA 0.48 mM): 125.64 nM/min
V(+Inhibitor) (AcpS; Acetyl CoA 0.48 mM): 122.32 nM/min and 124.81 nM/min and 129.79 nM/min
V(+Inhibitor) Mean (AcpS; Acetyl CoA […]): 57.60 nM/min
